Here are results for two molecules from PMC11913368, “Antilipase activities of cultivated peppermint and rosemary essential oils: in vitro and in silico studies” (Turkish Journal of Biology, 2025).

This experiment relates to T1, Candida rugosa lipase (CRL).
T1 construct: gene LIP1
Description: p-nitrophenyl laurate hydrolysis, absorbance at […] nm. The format is biochemical, Diutina rugosa. Conditions: substrate p-NPL, pH 7, 37 °C, 15 min preincubation with enzyme; reference compound.

Converted amounts (≈) assume the structure as drawn.

In the case of `O=c1c(O)c(-c2ccc(O)c(O)c2)oc2cc(O)cc(O)c12` [Quercetin], the “IC50 value” came to 320 ± 4 µg/mL (≈ 1060 µM).

In the case of `CCCCCCCCCCC[C@@H](C[C@@H]1OC(=O)[C@H]1CCCCCC)OC(=O)[C@H](CC(C)C)NC=O` [Orlistat], the “IC50 value” is 60 ± 0 µg/mL (≈ 121 µM).
